As a reminder, the IC50 is the concentration needed to halve the response being measured. The term EC50 denotes the concentration giving half of the maximal effect.

The structures appear in SMILES notation.

The values below come from ChEMBL document CHEMBL1139663, “6H-Benzo[c]chromen-6-one derivatives as selective ERbeta agonists” (Bioorg Med Chem Lett, 2006).

For experiment [1], the target named is T1, Estrogen receptor beta (Homo sapiens, UniProt Q92731).
Description: Binding affinity to ERbeta
Another experiment concerns the target T2, Estrogen receptor (Homo sapiens, UniProt P03372).
T2 sequence (P03372 whole entry): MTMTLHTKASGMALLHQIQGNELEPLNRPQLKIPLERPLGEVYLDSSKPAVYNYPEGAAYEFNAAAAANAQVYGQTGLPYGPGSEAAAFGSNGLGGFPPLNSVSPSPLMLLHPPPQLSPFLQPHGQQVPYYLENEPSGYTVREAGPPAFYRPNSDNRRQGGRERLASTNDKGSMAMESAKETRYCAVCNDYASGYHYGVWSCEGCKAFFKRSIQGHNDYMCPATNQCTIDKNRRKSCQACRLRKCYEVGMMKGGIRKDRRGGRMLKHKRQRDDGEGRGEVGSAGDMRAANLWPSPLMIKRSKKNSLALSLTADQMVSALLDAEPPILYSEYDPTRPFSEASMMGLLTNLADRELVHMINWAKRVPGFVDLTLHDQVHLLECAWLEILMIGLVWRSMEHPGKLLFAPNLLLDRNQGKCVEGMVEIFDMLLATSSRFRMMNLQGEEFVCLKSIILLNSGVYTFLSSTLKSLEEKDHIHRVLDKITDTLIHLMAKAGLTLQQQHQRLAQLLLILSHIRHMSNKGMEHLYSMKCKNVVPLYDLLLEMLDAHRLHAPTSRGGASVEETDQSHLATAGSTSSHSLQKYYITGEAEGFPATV

The target in experiment [2] is T1, Estrogen receptor beta. This is another data set of the same source.
Description: Binding affinity to ERbeta in presence of serum
The target of experiment [3] is T1, Estrogen receptor beta. The source holds these as a separate data set.
Description: Binding affinity to ERbeta in HTRF coactivator recruitment assay

T1 sequence (Q92731 whole entry): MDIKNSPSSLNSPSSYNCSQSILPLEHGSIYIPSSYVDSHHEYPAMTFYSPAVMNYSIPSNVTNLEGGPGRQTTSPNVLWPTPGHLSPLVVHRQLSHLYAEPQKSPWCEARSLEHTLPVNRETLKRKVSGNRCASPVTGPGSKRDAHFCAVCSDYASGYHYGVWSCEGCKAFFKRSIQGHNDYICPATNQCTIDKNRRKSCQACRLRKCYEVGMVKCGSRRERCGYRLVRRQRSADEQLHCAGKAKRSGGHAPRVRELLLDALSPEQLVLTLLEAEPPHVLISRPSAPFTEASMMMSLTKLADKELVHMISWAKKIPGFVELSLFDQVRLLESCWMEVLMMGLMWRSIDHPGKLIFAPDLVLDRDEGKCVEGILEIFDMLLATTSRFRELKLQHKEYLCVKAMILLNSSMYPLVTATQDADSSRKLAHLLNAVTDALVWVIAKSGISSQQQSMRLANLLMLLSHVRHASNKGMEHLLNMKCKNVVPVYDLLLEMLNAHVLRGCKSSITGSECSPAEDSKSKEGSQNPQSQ

For the molecule `CCCC1Oc2c(ccc(O)c2C)-c2c(C)cc(O)cc21` (stereo not drawn), the IC50 at Estrogen receptor beta [1] amounted to 22 nM; against Estrogen receptor, 626 nM.
Consider `Cc1cc2c(cc1Br)c(=O)oc1c(C)c(O)ccc12`, for which the IC50 on Estrogen receptor beta [1] worked out at 215 nM; at Estrogen receptor, 6850 nM.
The corresponding values for `CCc1cc(OC)cc2c(=O)oc3c(C)c(O)ccc3c12` are 69 nM and 9830 nM.
As to `CCC1Oc2c(ccc(O)c2C)-c2c(C)cc(O)c(C)c21` (stereo not drawn), the IC50 on Estrogen receptor beta [1] was determined as 2.3 nM; on Estrogen receptor it was 129 nM.
On the same counts, the results for `C=CCC1(C)Oc2c(ccc(O)c2C)-c2c(C)cc(O)c(C)c21` (stereo not drawn) are 13 nM and 157 nM.
Turning to `Cc1c(O)c(Cl)cc2c1c(=O)oc1c(Cl)c(O)ccc12`, the results for the IC50 at Estrogen receptor beta [1] and at Estrogen receptor were 19 nM and 524 nM, respectively.
As for `Cc1c(O)c(Cl)c(C)c2c1c(=O)oc1c(Cl)c(O)ccc12`, the IC50 was 22 nM against Estrogen receptor beta [1] and 597 nM at Estrogen receptor.
On the same counts, the results for `Cc1c(O)ccc2c1oc(=O)c1ccccc12` are 1450 nM and above 10000 nM.
As to `Cc1cc(O)cc2c1-c1ccc(O)c(C)c1OC2CC(C)C` (stereo not drawn), the IC50 against Estrogen receptor beta [1] stood at 49 nM; against Estrogen receptor, 627 nM.
On the same counts, the results for `Cc1c(O)ccc2c1OC(C)(C)c1c-2ccc(O)c1C` are 45 nM and 468 nM.
As to `Cc1cc(Br)c2c(c1)c(=O)oc1c(C)c(O)ccc12`, the IC50 on Estrogen receptor beta [1] turned out to be 44 nM; on Estrogen receptor, 3120 nM.
The corresponding values for `CC/C=C/c1cc2c(cc1Br)c(=O)oc1c(C)c(O)ccc12` are 26 nM and 1090 nM.
On the same counts, the results for `Cc1cc(C)c2c(c1)c(=O)oc1c(C)c(O)ccc12` are 20 nM and 3710 nM.
The corresponding values for `C=CCc1cc(C)cc2c(=O)oc3c(C)c(O)ccc3c12` are 35 nM and 10000 nM.
In the case of `O=c1oc2c(Cl)c(O)ccc2c2cc(F)c(O)c(Cl)c12`, the IC50 against Estrogen receptor beta [1] was determined as 180 nM; at Estrogen receptor it was 11600 nM.
On the same counts, the results for `Cc1c(O)ccc2c1oc(=O)c1c(C)c(NC=O)ccc12` are 957 nM and above 10000 nM.
With `Cc1cc(O)c(Cl)c2c(=O)oc3c(Cl)c(O)ccc3c12`, the concentration for half-maximal inhibition (IC50) on Estrogen receptor beta [1] worked out at 18 nM; against Estrogen receptor, 2520 nM.
On to `Cc1c(O)ccc2c1oc(=O)c1c(O)c(O)ccc12`, for which the IC50 at Estrogen receptor beta [1] came out at 82 nM; against Estrogen receptor, 1280 nM.
The corresponding values for `CCc1c(O)ccc2c1c(=O)oc1c(C)c(O)ccc12` are 14 nM and 484 nM.
As to `Cc1c(O)ccc2c1oc(=O)c1c(C)c(O)ccc12`, the values for the IC50 against Estrogen receptor beta [1], against Estrogen receptor and on Estrogen receptor beta [2] were 4.1 nM, 159 nM and 78 nM, respectively. On Estrogen receptor beta [3], this molecule yielded an EC50 of 7.2 nM.
`Cc1c(O)ccc2c1oc(=O)c1c(C)cccc12`: the IC50 was 93 nM against Estrogen receptor beta [1] and above 10000 nM on Estrogen receptor.
For `COc1ccc2c(c1)c(=O)oc1c(C)c(O)ccc12`, the values for the IC50 against Estrogen receptor beta [1] and against Estrogen receptor were 308 nM and above 10000 nM, respectively.
For the molecule `Cc1c(O)ccc2c1c(=O)oc1c(Br)c(O)ccc12`, the results for the IC50 on Estrogen receptor beta [1] and on Estrogen receptor were 67 nM and 1920 nM, respectively.
The corresponding values for `COc1ccc2c(c1C)c(=O)oc1c(C)c(O)ccc12` are 117 nM and 1000 nM.
The corresponding values for `Cc1c(O)cc(C)c2c1oc(=O)c1c(C)c(O)ccc12` are 6.7 nM and 785 nM.
Regarding `Cc1c(O)ccc2c1oc(=O)c1cccc(C)c12`, the figures for the IC50 against Estrogen receptor beta [1] and against Estrogen receptor were 326 nM and above 10000 nM, respectively.
Consider `C=Cc1cccc2c(=O)oc3c(C)c(O)ccc3c12`, for which the results for the IC50 on Estrogen receptor beta [1] and against Estrogen receptor were 208 nM and above 10000 nM, respectively.
As for `Cc1c(O)ccc2c1c(=O)oc1cc(O)cc(C)c12`, the values for the IC50 against Estrogen receptor beta [1] and at Estrogen receptor were 67 nM and 1860 nM, respectively.
With `Cc1cc2c(=O)oc3c(C)c(O)ccc3c2c(C)c1Br`, the IC50 at Estrogen receptor beta [1] is 57 nM; at Estrogen receptor it was above 10000 nM.
The corresponding values for `Cc1c(O)ccc2c1c(=O)oc1cc(O)ccc12` are 49 nM and 1170 nM.
On the same counts, the results for `Cc1c(O)cc(C)c2c1oc(=O)c1cc(O)ccc12` are 27 nM and 488 nM.
Take `Cc1c(O)ccc2c1oc(=O)c1c(Br)cc(Br)cc12`: the IC50 is 24 nM against Estrogen receptor beta [1] and 597 nM against Estrogen receptor.
The corresponding values for `CCC1Oc2c(ccc(O)c2C)-c2c(C)cc(O)cc21` (stereo not drawn) are 8 nM and 435 nM.
The corresponding values for `C=Cc1ccc2c(c1)c(=O)oc1c(C)c(O)ccc12` are 310 nM and 4590 nM.
On to `COc1c(C)cc2c(=O)oc3c(C)c(O)ccc3c2c1C`, for which the IC50 against Estrogen receptor beta [1] was determined as 16 nM; at Estrogen receptor, 4160 nM.
The corresponding values for `CCc1c(O)ccc2c1oc(=O)c1c(C)c(O)ccc12` are 7.8 nM and 229 nM.
On the same counts, the results for `Cc1c(O)ccc2c1c(=O)oc1c(F)c(O)ccc12` are 54 nM and 1580 nM.
On to `CCC1Oc2c(ccc(O)c2C)-c2ccc(O)c(C)c21` (stereo not drawn), for which the concentration for half-maximal inhibition (IC50) worked out at 3.2 nM against Estrogen receptor beta [1] and 101 nM at Estrogen receptor.
Regarding `Cc1cc(O)cc2c1-c1ccc(O)c(C)c1OC2`, the IC50 was 74 nM against Estrogen receptor beta [1] and 1030 nM at Estrogen receptor.
On the same counts, the results for `Cc1cc(O)c(C)c2c1-c1ccc(O)c(C)c1OC2C` (stereo not drawn) are 9 nM and 237 nM.
On the same counts, the results for `Cc1c(O)ccc2c1oc(=O)c1cc(O)ccc12` are 46 nM and 654 nM.
On the same counts, the results for `CCc1c(O)ccc2c1c(=O)oc1c(F)c(O)ccc12` are 21 nM and 228 nM.
Turning to `Cc1c(O)ccc2c1COc1c-2ccc(O)c1C`, the figures for the IC50 on Estrogen receptor beta [1] and at Estrogen receptor were 88 nM and 4610 nM, respectively.
On the same counts, the results for `Cc1c(O)ccc2c1oc(=O)c1c(C)ccc(C)c12` are 80 nM and 3070 nM.
On the same counts, the results for `Cc1cc(O)cc2c1-c1ccc(O)c(C)c1OC2C` (stereo not drawn) are 24 nM and 1210 nM.
For the molecule `C/C=C/c1cccc2c(=O)oc3c(C)c(O)ccc3c12`, the IC50 is 116 nM against Estrogen receptor beta [1] and 3030 nM on Estrogen receptor.
On the same counts, the results for `Cc1c(O)ccc2c1oc(=O)c1c(C)c(O)cc(C)c12` are 5.7 nM and 716 nM.
`Cc1cc(C)c2c(c1)c(=O)oc1cc(O)ccc12`: the IC50 on Estrogen receptor beta [1] came out at 90 nM; on Estrogen receptor it was 585 nM.
Take `C=Cc1cc(C)cc2c(=O)oc3c(C)c(O)ccc3c12`: the values for the IC50 against Estrogen receptor beta [1], on Estrogen receptor and at Estrogen receptor beta [2] were 10 nM, 10000 nM and 1280 nM, respectively. Besides, the EC50 on Estrogen receptor beta [3] was above 1000 nM.
Consider `Cc1c(O)ccc2c1oc(=O)c1c(C)c(N)ccc12`, for which the results for the IC50 against Estrogen receptor beta [1] and against Estrogen receptor were 279 nM and 14300 nM, respectively.
Turning to `Cc1c(O)ccc2c1OC(C)c1c-2ccc(O)c1C` (stereo not drawn), the results for the IC50 against Estrogen receptor beta [1] and against Estrogen receptor were 8 nM and 335 nM, respectively.
The corresponding values for `C=Cc1cc(OC)cc2c(=O)oc3c(C)c(O)ccc3c12` are 53 nM and above 10000 nM.
Turning to `COc1c(C)c(Br)c2c(=O)oc3c(C)c(O)ccc3c2c1C`, the IC50 against Estrogen receptor beta [1] was 1.15 nM; against Estrogen receptor it was 225 nM.
As to `CCc1cc(O)cc2c(=O)oc3c(C)c(O)ccc3c12`, the IC50 worked out at 91 nM at Estrogen receptor beta [1] and 1780 nM against Estrogen receptor.
The corresponding values for `Cc1c(O)ccc2c1oc(=O)c1c(C)c(NS(C)(=O)=O)ccc12` are 433 nM and 4260 nM.
Turning to `Cc1c(O)ccc2c1oc(=O)c1cc(O)cc(C)c12`, the IC50 is 54 nM against Estrogen receptor beta [1] and 583 nM on Estrogen receptor.
For `CCc1c(O)ccc2c1oc(=O)c1cc(Br)ccc12`, the values for the IC50 at Estrogen receptor beta [1] and against Estrogen receptor were 2340 nM and 5460 nM, respectively.
Regarding `COc1cc2c(=O)oc3c(C)c(O)ccc3c2cc1Br`, the figures for the IC50 on Estrogen receptor beta [1] and against Estrogen receptor were 77 nM and 10000 nM, respectively.
The corresponding values for `Cc1c(O)ccc2c1oc(=O)c1cc(Br)ccc12` are 128 nM and above 10000 nM.
In turn, `C=Cc1cc(O)cc2c1-c1ccc(O)c(C)c1CC2` [EFFUSOL] had an IC50 against Estrogen receptor beta [1] of 12 nM.
